The results in this text go back to patent publication US10640507B2, “PBD antibacterial agents” (KING'S COLLEGE LONDON, priority 2015, dated 2020).

For one experiment, the system named is K. pneumonia MGH 78578. The experiment can be described thus: General MIC protocol, Gram negative. The class given is cell-based. The following applies: Klebsiella pneumoniae, MGH78578. The gist of the method: (§1)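 Broth microdilution in tryptic soy broth used two-fold serial dilutions from a top final concentration of 32 μg/ml and a starting inoculum of 5×10^5 bacteria/ml. Plates stood 20 h at 37 °C unless specified elsewhere. Growth was judged by OD600.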

The next experiment relates to K. pneumonia NCTC 13439. The experiment can be described thus: General MIC protocol, Gram negative. The following applies: Klebsiella pneumoniae, NCTC13439. It is filed as cell-based. Put shortly:
as §1

In another experiment the test system is P. aeruginosa PA01. The experiment can be described thus: General MIC protocol, Gram negative. The class given is cell-based. The gist of the method:
as §1

The test system of experiment [1] is A. baumannii - NCTC 17978. Put plainly: Time kill kinetics. The class given is cell-based. To be noted: drug at 4×MIC. As for the experimental part:
1. Grow bacteria overnight.
2. Subculture into an autoclaved conical flask containing 10 ml of TSB to an OD of 0.01 (˜1×10^7 Cfu/ml for KP-M6).
4. Take aliquots (100 μl) at timepoints (0, 1, 2, 4, 6, 24 hours) and carry out a serial dilution in PBS (to remove drug and to dilute bacteria to countable numbers).
5. Use the serial dilution to perform a Miles Misra—i.e. Add 3×10 μl spots of each dilution onto an agar plate. Incubate overnight and count colonies on spots in the morning.
6. Control: Subculture bacteria alongside samples but with no antibiotic added. Take aliquots from this at every time point (0, 1, 2, 4, 6, 24 hours) and perform Miles Misra on these too (as detailed in points 4 and 5 above).
7. After the first experiment, if the counts seen on Miles-Misra were zero, total viable counts were determined by spreading 200 μl in a streak down the centre of a TSB agar plate, waiting for the liquid to be absorbed and then spreading over the plate and checking for growth inhibition at the sight of the original streak.
8. The compound is considered bactericidal if the inoculum was reduced >3 log10 CFU/ml and bacteriostatic if inoculum was reduced by 0-3 log10 CFU/ml.
Three measurements were taken for each compound at each time point. These measurements were averaged and the standard deviation was also calculated.

The subject of a further experiment is AYE. The experiment can be described thus: Effect of efflux pump inhibitors (EPIs) on MIC. The class given is cell-based, A. bauamnnii. To be noted: for +PABN MIC: PABN at 25 μg/ml. The protocol:
(§2) 1. Grow up cultures of bacterial strains to be tested overnight.
(§3) 2. Dilute down overnight cultures to concentration of 1×10^6 bacteria/ml (OD0.01) in Tryptic soy broth (TSB).
(§4) 3. Add 100 μl of TSB media to column 2-column 12 in 96 well plate (keeping column 1 clear).
(§5) 4. Make up compound to a concentration of 64 μg/ml in water.
(§6) 5. Add 100 μl of antibiotic solution to the 1st and 2nd columns.
(§7) 6. Using a multichannel pipette take 100 μl from the 2nd column wells and pipette into 3rd column wells and repeat down the 96 well plate (remember to include controls i.e. uninfected media and media with no antibiotic).
(§8) 7. To each well (except uninfected control row H) add 50 μl/well of EPI at 4× final concentration in TSB.
(§9) 9. In wells used to test the effect of the EPI carbonyl cyanide 3-chlorophenylhydrazone (CCCP) the CCCP is added at 10 μg/ml final concentration.
(§10) 10. In wells used to test the effect of the EPI phenylalanine-arginine β-naphthylamide (PABN) the PABN is added at 25 μg/ml final concentration.
(§11) 11. In wells used to test the effect of the PABN+Mg, the PABN is added at 25 μg/ml final concentration, with 1 mM MgSO4 in TSB.
(§12) 12. Wrap plate with parafilm to prevent evaporation.
(§13) 13. Leave at desired temperature (37° C. unless specified elsewhere) for 20 hours.
(§14) 14. Next day check plates for growth and measure optical density (i.e. absorbance) at a wavelength of 600 nm (OD600).
(§15) Compound KMR-14-33 was tested against a range of bacterial species using the above protocol. Compound PP-A148 was also tested against a more limited range of bacterial species using the above protocol. For KMR-14-33 measurements were carried out for the compound alone, for the compound plus CCCP, for the compound plus PABN and for the compound plus PABN and plus Mg. For PP-A148 measurements were carried out for the compound alone and for the compound plus PABN.

The subject of another experiment is NCTC 17978. The experiment can be described thus: Effect of efflux pump inhibitors (EPIs) on MIC. It is filed as cell-based, A. bauamnnii. The following applies: for +PABN MIC: PABN at 25 μg/ml. The protocol:
as §2, §3, §4, §5, §6, §7, §8, §9, §10, §11, §12, §13, §14, §15

The mark [2] stands for this setting: Pseudomonas aeruginosa, PA01, PA01.
Where [3] appears, read: read-out: Control with no EPI MIC.
[4] abbreviates: no EPI, read-out: Control with no EPI MIC.

As a reminder, the MIC is the lowest concentration found to suppress growth.

Molecules are shown by their SMILES. ≈ marks a conversion by molar mass, not a printed value. Read-outs that look alike come from different tables or passages of the source.

In the case of `COc1cc2c(cc1OCCCC(=O)Nc1cc(C(=O)Nc3ccc4sc(C(=O)N(C)C)cc4c3)n(C)c1)N=C[C@@H]1CCCN1C2=O` [KMR-14-33, (S)—N-(2-(dimethylcarbamoyl)benzo[b]thiophen-5-yl)-4-(4-((7-methoxy-5-oxo-2,3,5,11a-tetrahydro-1H-benzo[e]pyrrolo[1,2-a][1,4]-diazepin-8-yl)oxy)butanamido)-1-methyl-1H-pyrrole-2-carboxamide], the MIC was 1 µg/mL (≈ 1.52 µM) in the experiment on K. pneumonia MGH 78578; 2 µg/mL (≈ 3.05 µM) in the experiment with K. pneumonia NCTC 13439; > 32 µg/mL with P. aeruginosa PA01 (PA01, KMR-14-33 alone); > 32 µg/mL in the experiment on P. aeruginosa PA01 (setting [2]); 0.125 µg/mL (≈ 0.19 µM) in the experiment on AYE (read-out: +CCCP MIC); 1 µg/mL (≈ 1.52 µM) with AYE (setting [3]). In addition, the MIC with NCTC 17978 (CCCP at 10 μg/ml, read-out: +CCCP MIC) worked out at 0.25 µg/mL (≈ 0.381 µM); in the experiment with NCTC 17978 (setting [4]), 0.5 µg/mL (≈ 0.761 µM). For the same compound, the Average (CFU/ml) in experiment [1] (time-point 1 hours), in experiment [1] (time-point 2 hours), in experiment [1] (time-point 4 hours), in experiment [1] (time-point 6 hours) and in experiment [1] (time-point 24 hours) was 0 CFU/ml each time. Also, the “n = 1 (Log CFU/ml)” value in experiment [1] (time-point 1 hours), in experiment [1] (time-point 2 hours), in experiment [1] (time-point 4 hours), in experiment [1] (time-point 6 hours) and in experiment [1] (time-point 24 hours) was 0 Log CFU/ml throughout. In addition, the “n = 2 (Log CFU/ml)” value in experiment [1] (time-point 1 hours), in experiment [1] (time-point 2 hours), in experiment [1] (time-point 4 hours), in experiment [1] (time-point 6 hours) and in experiment [1] (time-point 24 hours) was 0 Log CFU/ml each time. The “n = 3 (Log CFU/ml)” value in experiment [1] (time-point 1 hours), in experiment [1] (time-point 2 hours), in experiment [1] (time-point 4 hours), in experiment [1] (time-point 6 hours) and in experiment [1] (time-point 24 hours) was 0 Log CFU/ml throughout. Moreover, the entries for the “+PABN MIC” value with AYE (AYE) and with NCTC 17978 were 0.125 µg/mL and 0.06 µg/mL, respectively. Besides, the “+PABN + Mg MIC” value in the experiment with AYE (AYE, PABN at 25 μg/ml with 1 mM MgSO4) was 0.25 µg/mL; with NCTC 17978 (PABN at 25 μg/ml with 1 mM MgSO4), 0.25 µg/mL.

For `COc1cc2c(cc1OCCCC(=O)Nc1cc(C(=O)Nc3ccc4oc(C(=O)N5CCSCC5)cc4c3)n(C)c1)N=C[C@@H]1CCCN1C2=O` [PP-A148, (S)-4-(4-((7-methoxy-5-oxo-2,3,5,11a-tetrahydro-1H-benzo-[e]pyrrolo[1,2-a][1,4]diazepin-8-yl)oxy)butanamido)-1-methyl-N-(2-(thiomorpholine-4-carbonyl)benzofuran-5-yl)-1H-pyrrole-2-carboxamide], the MIC with K. pneumonia MGH 78578 is 4 to 8 µg/mL (≈ 5.72 to 11.4 µM); in the experiment with K. pneumonia NCTC 13439, 4 to 8 µg/mL (≈ 5.72 to 11.4 µM); against P. aeruginosa PA01 (PA01), >128 µg/mL; in the experiment on P. aeruginosa PA01 (setting [2]), 128 µg/mL (≈ 183 µM); with AYE (setting [3]) it was 2 µg/mL (≈ 2.86 µM); in the experiment on NCTC 17978 (setting [4]), 2 µg/mL (≈ 2.86 µM). Further, the “+PABN MIC” value in the experiment on AYE (AYE) and with NCTC 17978 was 0.125 to 0.5 µg/mL each time.

As to `O=C(O)c1cn(C2CC2)c2cc(N3CCNCC3)c(F)cc2c1=O` [CIP, ciprofloxacin, reference compound], the MIC in the experiment with K. pneumonia MGH 78578 (K. pneumonia MGH 78578, read-out: MIC) was 1 µg/mL (≈ 3.02 µM); with K. pneumonia NCTC 13439 (K. pneumonia NCTC 13439, read-out: MIC), 8 to 16 µg/mL (≈ 24.1 to 48.3 µM); in the experiment with P. aeruginosa PA01 (Pseudomonas aeruginosa, PA01, read-out: MIC) it was 1 µg/mL (≈ 3.02 µM). The Average (CFU/ml) in experiment [1] (time-point 1 hours) is 7000 CFU/ml; in experiment [1] (time-point 2 hours), 584 CFU/ml; in experiment [1] (time-point 4 hours), 10.7 CFU/ml; in experiment [1] (time-point 6 hours), 0 CFU/ml; in experiment [1] (time-point 24 hours), 4 CFU/ml. Further, the “n = 1 (Log CFU/ml)” value in experiment [1] (time-point 1 hours) turned out to be 19000 Log CFU/ml; in experiment [1] (time-point 2 hours) it was 1500 Log CFU/ml; in experiment [1] (time-point 4 hours) it was 0 Log CFU/ml; in experiment [1] (time-point 6 hours), 0 Log CFU/ml; in experiment [1] (time-point 24 hours), 10 Log CFU/ml. For the same compound, the “n = 2 (Log CFU/ml)” value in experiment [1] (time-point 1 hours) is 0 Log CFU/ml; in experiment [1] (time-point 2 hours), 0 Log CFU/ml; in experiment [1] (time-point 4 hours) it was 30 Log CFU/ml; in experiment [1] (time-point 6 hours), 0 Log CFU/ml; in experiment [1] (time-point 24 hours) it was 0 Log CFU/ml.
